Paper PMC10827914 (Cellular and Molecular Life Sciences: CMLS, 2024)

Tests used:
WEHI-164 fibrosarcoma = test: Antitumor activity in WEHI-164 fibrosarcoma-bearing mice; assay type: in vivo
Procedure: Female BALB/c mice (Charles River Laboratories, Calco, Italy), weighing 16–18 g, were subcutaneously injected into the left flank of 10^6 WEHI-164 cells (ATCC, cat. CRL-1751, Lot. 63,682,839). Dose-finding experiments were performed with groups of six mice treated with G4-TNF (4, 20, or 100 pg/dose in 100 μL of 0.9% sodium chloride containing 100 µg/ml HSA, intraperitoneally injected on day 5) or vehicle. Tumor growth was monitored daily by measuring tumor volume with calipers, as previously described. The animals were sacrificed before the tumor diameter reached 1.0–1.5 cm. To test whether the antitumor activity of G4-TNF was mediated by CD13, tumor-bearing mice (6 animals/group) were treated with a single injection of G4-TNF (100 pg/dose, i.p.) in combination with peptide CNGRC (100 µg/dose) or anti-CD13 mAb R3-63 (25 µg/dose, given 1.5 h i.p. before administration of G4-TNF) 5 days after tumor implantation.
Fig. 3 Effect of G4-TNF on tumor growth and body weight of mice bearing WEHI-164 fibrosarcomas. A Mice bearing subcutaneous WEHI-164 tumors (5–6 mice/groups) were treated 5 days after tumor implantation with a single intraperitoneal injection of G4-TNF (0, 4, 20, or 100 pg). Tumor volume and body weight after treatment were monitored daily. B Effect of mAb R3-63 (anti-murine CD13 antibody, 25 µg) and CNGRC peptide (100 µg) on the antitumor activity of G4-TNF (100 pg) (5–6 mice/group). The arrows indicate the time of treatment. *P < 0.05; **P < 0.01, by Mann–Whitney analysis of the area under the curve for each tumor, with the GraphPad Prism software (mean ± SEM)
A) Mice bearing subcutaneous WEHI-164 tumors (6 mice/groups), were treated 5-6 days after tumor implantation with a single intraperitoneal injection of murine NGR-TNF (0, 25, 50, or 100 pg). Tumor volume and body weight after treatment were monitored daily.
B) Effect of murine TNF (50 pg) on tumor growth and body weight. The arrows indicate the time of treatment (mean ± SEM).

[1] = system: soluble CD13 from human serum (sCD13); test: Competitive ELISA of sCD13 binding to mAb WM15; details: plates coated with mAb WM15 5 μg/mL, human serum diluted 1:2, 2 h, room temperature
Procedure: Fig. 4 The active site of membrane CD13 expressed by HUVEC, but not that of soluble CD13 or membrane CD13 expressed by HL60 cells, is accessible to G4-TNF. A Competitive effects of G4 and G4-TNF on the binding of mAb WM15 (anti-CD13) to sCD13 or rCD13 showing the lack of binding of G4-TNF to natural and recombinant soluble CD13 (sCD13 and rCD13). G4, scrambled G4 (GCRSNCYRVG), and TNF were used as positive (G4) and negative (scrambled G4, TNF) controls. The sCD13 competition assay was performed as follows: microplates were coated with mAb WM15 (5 μg/mL) in DPBS and incubated overnight at 4 °C. […] The mixtures were incubated for 2 h at room temperature and washed with DPBS. To detect bound sCD13, we added an anti-CD13 rabbit polyclonal antibody (1:1000, 1 h at room temperature), washed with DPBS, and added peroxidase-labeled goat anti-rabbit secondary antibody (1:2000, 1 h). Bound peroxidase was detected using o-phenylendiamine chromogenic substrate. The absorbance of o-phenylenediamine was measured at 490 nm using an ELISA plate reader (Bio-Rad). Cumulative results of two independent experiments, each performed in duplicate, are shown (mean ± SEM). The rCD13 competition assay was performed as described in Supplementary Fig. S2 (one experiment in duplicate, mean ± SEM). […]

[2] = system: CD13 expressed in HL-60 cells; test: Inhibition of cell-associated CD13 enzymatic activity, HL-60 cells; assay type: cell-based, human; details: 3 × 10^5 cells/well, L-alanine p-nitroanilide, 30 min, 37 °C, absorbance 405 nm
Procedure: Fig. 5 Quantification of CD13 expressed by HL-60 and HUVEC by western blotting and FACS analyses, and determination of their enzymatic activity. A Western blotting (WB) analysis of CD13 expression in HL-60 cells and HUVEC. For both cell lines, 2 µg of cell lysates were loaded in each well (n = 4–5 replicates, as indicated). After blotting, the membrane was cut and analyzed for CD13 and actin expression as described in Material and methods. The results of one representative experiment, out of three independent experiments performed, are shown (bars, ratio of CD13/actin band intensity, mean ± SEM). Recombinant human CD13 (rCD13) (20 ng) was loaded as positive control. MW, molecular weight markers. B FACS analysis of CD13 expression in HUVEC and HL-60 cells. The cells were incubated with mAb WM15 (10 μg/mL) and stained with a FITC-labeled goat anti-mouse IgG (H + L) secondary antibody. Data were expressed as fluorescence intensity and normalized to the number of cells. The cumulative results of three independent experiments are shown (each performed in duplicate; mean ± SEM). C Enzyme activity assay of CD13 expressed in HUVEC and HL-60 cells. […] Absorbance at 405 nm was measured using a plate reader. The enzyme units in each sample were calculated using rCD13 as a standard and were normalized to the number of cells. […] The absorbance was measured at 405 nm using a plate reader. […]

VGCARRYCS-TNF [G4-TNF, recombinant murine TNF fused to the C-terminus of G4]
Body weight and clinical signs of toxicity (WEHI-164 fibrosarcoma; mice after treatment with 4, 20 or 100 pg i.p.): No loss of body weight and no other clinical signs of toxicity | Antitumor effect (tumor growth) (WEHI-164 fibrosarcoma; single intraperitoneal injection of 100 pg, 5 days after tumor implantation): significant antitumor effects | Competition of sCD13 binding to mAb WM15 (in words) [1]: no competition was observed | Inhibition of CD13 enzymatic activity associated with HL-60 cells (in words) [2]: did not inhibit
